How the values were obtained:
androgen receptor (AR) [1] = assay type: cell-based
Excerpt: For example, the compounds can be subjected to tests using an artificial androgen receptor (AR) response reporter system in a hormone refractory prostate cancer cell line. The prostate cancer LNCaP cells are engineered to stably express about 5-fold higher level of AR than endogenous level. The exogenous AR has similar properties to endogenous AR in that both are stabilized by a synthetic androgen R1881. […] The antagonistic activity of the compounds for which the synthesis is described above can be examined in the presence of 100 pM of R1881. Engineered LNCaP cells (LNCaP-AR, also abbreviated LN-AR) are maintained in Iscove's medium containing 10% fetal bovine serum (FBS). Two days prior to drug treatment, the cells are grown in Iscove's medium containing 10% charcoal-stripped FBS (CS-FBS) to deprive of androgens. The cells are split and grown in Iscove's medium containing 10% CS-FBS with 100 pM of R1881 and increasing concentrations of test compounds. After two days of incubation, reporter activities are assayed.
To determine agonistic activities of different compounds, the stimulating activities on androgen receptor (AR) using the AR response reporter as the measure in the LN-AR system in the absence of R1881 can be examined.

androgen receptor (AR) [2] = assay type: cell-based; remark: listed apart in the source
Excerpt: The LNCaP-AR cells are a line of lymph node carcinoma of prostate cells transduced with a plasmid that makes express androgen receptors.

[3] = tested on: LNCaP cells with overexpressed AR (LN-AR); assay: MTS assay of growth of LNCaP-AR cells
Method: LNCaP-AR cells can be maintained in Iscove's medium containing 10% FBS. The compounds are examined for their effect on growth of hormone refractory prostate cancer cells. Overexpressed LNCaP cells are used because these cells behave as hormone refractory prostate cancer cells in vitro and in vivo. Mitochondria activity by MTS assay is measured, a surrogate for growth. LNCaP cells with overexpressed AR (LN-AR) are maintained in Iscove's medium containing 10% FBS. Two days prior to drug treatment, the cells are grown in Iscove's medium containing 10% CS-FBS to deprive of androgens. The cells are then split and grown in Iscove's medium containing 10% CS-FBS with appropriate concentrations of R1881 and increasing concentrations of the test compounds. After four days incubation, cell growth is monitored by MTS (Promega, Madison, Wis.).
The inhibitory effect of compounds on growth of hormone refractory prostate cancer in the presence of 100 pM of R1881 is measured.

hormone refractory LAPC4 = assay: Hormone refractory LAPC4 xenograft model; conditions: compared with vehicle
Excerpt: Compounds can also be tested in another xenograft model of hormone refractory prostate cancer, hormone refractory LAPC4. This model is established from passaging of hormone sensitive prostate cancer in castrated mice, which mimics the clinical progression of prostate cancer.

androgen receptor (AR) [4] = molecular target: androgen receptor (AR) (Homo sapiens, UniProt P10275, T878A); conditions: parental LNCaP cells
LNCaP cells = assay: MTS assay of growth of parental, hormone sensitive LNCaP cells

androgen receptor (AR) (Homo sapiens, UniProt P10275, T878A), sequence (P10275 whole entry T878A): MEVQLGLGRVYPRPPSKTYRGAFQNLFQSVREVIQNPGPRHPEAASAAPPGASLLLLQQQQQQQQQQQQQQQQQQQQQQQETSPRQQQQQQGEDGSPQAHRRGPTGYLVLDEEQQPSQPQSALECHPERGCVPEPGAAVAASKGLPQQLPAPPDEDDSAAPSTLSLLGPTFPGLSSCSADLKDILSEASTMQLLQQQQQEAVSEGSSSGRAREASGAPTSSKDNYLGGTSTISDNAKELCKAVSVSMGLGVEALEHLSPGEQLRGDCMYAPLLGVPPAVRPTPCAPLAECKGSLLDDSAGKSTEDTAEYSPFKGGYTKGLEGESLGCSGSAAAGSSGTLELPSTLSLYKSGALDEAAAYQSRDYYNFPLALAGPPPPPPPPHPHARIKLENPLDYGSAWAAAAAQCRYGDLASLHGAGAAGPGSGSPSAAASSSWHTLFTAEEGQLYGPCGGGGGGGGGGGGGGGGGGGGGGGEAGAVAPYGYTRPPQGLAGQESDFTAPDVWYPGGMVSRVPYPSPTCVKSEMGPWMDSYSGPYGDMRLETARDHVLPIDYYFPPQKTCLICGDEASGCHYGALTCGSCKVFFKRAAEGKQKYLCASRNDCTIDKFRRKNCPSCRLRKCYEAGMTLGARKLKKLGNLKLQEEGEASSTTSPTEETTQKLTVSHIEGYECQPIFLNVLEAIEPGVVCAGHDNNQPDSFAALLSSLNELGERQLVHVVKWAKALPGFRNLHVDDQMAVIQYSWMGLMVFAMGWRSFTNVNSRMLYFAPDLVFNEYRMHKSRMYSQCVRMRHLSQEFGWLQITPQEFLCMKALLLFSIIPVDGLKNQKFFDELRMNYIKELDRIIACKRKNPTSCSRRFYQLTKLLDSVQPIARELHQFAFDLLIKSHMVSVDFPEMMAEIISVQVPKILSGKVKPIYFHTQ

CC1(C)C(=O)N(c2ccc(C#N)c(C(F)(F)F)c2)C(=S)N1CCCCO [RU59063]
agonistic activity on AR (AR response reporter) (androgen receptor (AR) [1]; LN-AR system, hormone refractory, absence of R1881): can activate AR
stimulation of PSA expression (agonistic activity) (androgen receptor (AR) [2]; hormone refractory prostate cancer, absence of R1881): can stimulate PSA expression

CC(O)(CS(=O)(=O)c1ccc(F)cc1)C(=O)Nc1ccc(C#N)c(C(F)(F)F)c1 (stereo not shown) [Bicalutamide]
inhibitory effect on growth of hormone refractory prostate cancer ([3]; presence of 100 pM of R1881, MTS): does not inhibit
inhibition of PSA expression (hormone refractory LAPC4): does not inhibit
inhibition of growth (hormone refractory LAPC4): does not inhibit

C[C@]1(O)CC[C@H]2[C@@H]3CCC4=CC(=O)CCC4=C3C=C[C@@]21C [R1881]
reporter activity response to androgen (androgen receptor (AR) [1]; LNCaP-AR cells): responds to low concentration
concentration that strongly induces the secreted PSA level (androgen receptor (AR) [2]; LNCaP-AR cells): 25 pM
concentration at which PSA is first induced (androgen receptor (AR) [4]): 100 pM
concentration that stimulates growth ([3]; AR-overexpressed LNCaP, MTS): 25 µM
concentration at which growth is first stimulated (LNCaP cells): 100 µM
